Results on 24 compounds are retold here after patent US9249102B2 (priority 2012, dated 2016).

The test system of assay [1] is microfilaria of Dirofilaria immitis. Nature of the assay: Method F: microfilaria of Dirofilaria immitis, survival at 24 hours.
Another assay deals with Haemonchus contortus. Kind of assay: Method A: Haemonchus contortus L1 larvae, microtitre plate screen. The conditions noted are these: 96 h, read-out: motility inhibition.
Setting [2] is: survival of microfilaria at 24 hours.

Where two headings read alike, the source gives them in different places. A value given as a limit tells only on which side of the number the result lay.

Turning to `CN(c1ccc([N+](=O)[O-])c(C(F)(F)F)c1)[C@H]1CC[C@H](OCC(=O)N2CCN(c3ccc4cc(F)ccc4c3)CC2)CC1` [Compound 248, 1-(4-(6-fluoronaphthalen-2-yl)piperazin-1-yl)-2-(4-(methyl(4-nitro-3-(trifluoromethyl)phenyl)amino)cyclohexyloxy)ethanone], the EC50 in assay [1] was < 0.1 µg/mL. Further, the inhibition at 5 µg/mL in the assay with Haemonchus contortus is ≥ 90%.
In the case of `N#Cc1ccc(N[C@H]2CC[C@H](OCC(=O)N3CCN(CC4Cc5cc(F)ccc5O4)CC3)CC2)cc1C(F)(F)F` (stereo partly drawn) [Compound 83], the EC50 in assay [1] (setting [2]) was < 5 µg/mL. The inhibition at 5 µg/mL in the assay on Haemonchus contortus is ≥ 90%.
The corresponding values for `O=C(COc1ccc(Nc2ccc([N+](=O)[O-])c(C(F)(F)F)c2)cc1)N1CCN(Cc2cc3cc(C(F)(F)F)ccc3o2)CC1` [Compound 188, 2-(4-[[4-nitro-3-(trifluoromethyl)phenyl]amino]phenoxy)-1-(4-[[5-(trifluoromethyl)-1-benzofuran-2-yl]methyl]piperazin-1-yl)ethan-1-one] are < 5 µg/mL and ≥ 90%.
On the same counts, the results for `O=C(COc1ccc(Nc2ccc([N+](=O)[O-])c(C(F)(F)F)c2)cc1)N1CCN(CC2Cc3cc(F)ccc3O2)CC1` (stereo not drawn) [Compound 185, 1-[4-[(5-fluoro-2,3-dihydro-1-benzofuran-2-yl)methyl]piperazin-1-yl]-2-(4-[[4-nitro-3-(trifluoromethyl)phenyl]amino]phenoxy)ethan-1-one] are < 0.1 µg/mL and ≥ 90%.
On the same counts, the results for `O=[N+]([O-])c1ccc(N[C@H]2CC[C@H](OCC(=S)N3CCN(c4ccc5cc(F)ccc5c4)CC3)CC2)cc1C(F)(F)F` [Compound 263, 1-[4-(6-fluoro-naphthalen-2-yl)-piperazin-1-yl]-2-[4-(4-nitro-3-trifluoromethyl-henylamino)-cyclohexyloxy]-ethanethione] are < 1 µg/mL and ≥ 90%.
Consider `O=C(CO[C@H]1CC[C@H](Nc2ccc([N+](=O)[O-])c(C(F)(F)F)c2)CC1)N1CCN(c2cc3cc(F)ccc3s2)CC1` [Compound 236, 1-(4-(5-fluorobenzo[b]thiophen-2-yl)piperazin-1-yl)-2-((4-((4-nitro-3-(trifluoromethyl)phenyl)amino)cyclohexyl)oxy)ethanone], for which the EC50 in assay [1] (setting [2]) was < 1 µg/mL. In addition, the inhibition at 5 µg/mL with Haemonchus contortus is ≥ 90%.
The corresponding values for `O=C(COc1ccc(Nc2ccc([N+](=O)[O-])c(C(F)(F)F)c2)cc1)N1CCN(C(=O)c2cc3cc(Cl)ccc3o2)CC1` [Compound 189, 1-[4-[(5-chloro-1-benzofuran-2-yl)carbonyl]piperazin-1-yl]-2-(4-[[4-nitro-3-(trifluoromethyl)phenyl]amino]phenoxy)ethan-1-one] are < 5 µg/mL and ≥ 90%.
As for `O=C(CO[C@H]1CC[C@H](Nc2ccc([N+](=O)[O-])c(C(F)(F)F)c2)CC1)N1CCN(c2ccc3cc(F)ccc3c2)CC1` [Compound 17, 1-[4-(6-fluoronaphthalen-2-yl)piperazin-1-yl]-2-[(4-[[4-nitro-3-(trifluoromethyl)phenyl]amino]cyclohexyl)oxy]ethan-1-one], the EC50 in assay [1] (setting [2]) is < 1 µg/mL. The inhibition at 5 µg/mL in the assay on Haemonchus contortus is ≥ 90%.
On the same counts, the results for `CC(CN1CCN(c2ccc3cc(Cl)ccc3n2)CC1)C(=O)N1CCC(Nc2ccc([N+](=O)[O-])c(C(F)(F)F)c2)CC1` (stereo not drawn) [Compound 93, 3-[4-(6-chloroquinolin-2-yl)piperazin-1-yl]-2-methyl-1-(4-[[4-nitro-3-(trifluoromethyl)phenyl]amino]piperidin-1-yl)propan-1-one] are < 5 µg/mL and ≥ 90%.
On the same counts, the results for `O=C(CO[C@H]1CC[C@H](Nc2ccc([N+](=O)[O-])c(C(F)(F)F)c2)CC1)N1CCN(C(=O)C2Cc3cc(Cl)ccc3O2)CC1` (stereo partly drawn) [Compound 79, 1-[4-[(5-chloro-2,3-dihydro-1-benzofuran-2-yl)carbonyl]piperazin-1-yl]-2-[(4-[[4-nitro-3-(trifluoromethyl)phenyl]amino]cyclohexyl)oxy]ethan-1-one] are < 5 µg/mL and ≥ 90%.
On the same counts, the results for `N#Cc1ccc(N[C@H]2CC[C@H](OCC(=O)N3CCN(C(=O)C4Cc5cc(C(F)(F)F)ccc5O4)CC3)CC2)cc1C(F)(F)F` (stereo partly drawn) [Compound 87, 2-[4-(4-cyano-3-trifluoromethyl-phenylamino)-cyclohexyloxy]-1-[4-(5-trifluoromethyl-2,3-dihydro-benzofuran-2-carbonyl)-piperazin-1-yl]-ethanone] are < 5 µg/mL and ≥ 90%.
`CC(CN1CCN(c2ccc3cc(C(F)(F)F)ccc3n2)CC1)C(=O)N1CCC(Nc2ccc([N+](=O)[O-])c(C(F)(F)F)c2)CC1` (stereo not drawn) [Compound 92, 2-methyl-1-(4-(4-nitro-3-(trifluoromethyl)phenylamino)piperidin-1-yl)-3-(4-(6-(trifluoromethyl)quinolin-2-yl)piperazin-1-yl)propan-1-one]: the EC50 in assay [1] (setting [2]) is < 1 µg/mL. Further, in the assay on Haemonchus contortus, the inhibition at 5 µg/mL was ≥ 90%.
On to `O=C(CO[C@H]1CC[C@H](Nc2ccc([N+](=O)[O-])c(C(F)(F)F)c2)CC1)N1CCc2cc(C(F)(F)F)ccc2C1` [Compound 194, 2-[(4-[[4-nitro-3-(trifluoromethyl)phenyl]amino]cyclohexyl)oxy]-1-[6-(trifluoromethyl)-1,2,3,4-tetrahydroisoquinolin-2-yl]ethan-1-one], for which, in assay [1] (setting [2]), the EC50 is < 1 µg/mL. Further, in the assay with Haemonchus contortus, the inhibition at 5 µg/mL is ≥ 90%.
With `O=C(CO[C@H]1CC[C@H](Nc2ccc([N+](=O)[O-])c(C(F)(F)F)c2)CC1)N1CCN(c2ccc3ccccc3n2)CC1` [Compound 88, 2-((1R,4R)-4-(4-nitro-3-(trifluoromethyl)phenylamino)cyclohexyloxy)-1-(4-(quinolin-2-yl)piperazin-1-yl)ethanone], the EC50 in assay [1] (setting [2]) is < 5 µg/mL. Further, the inhibition at 5 µg/mL in the assay on Haemonchus contortus is ≥ 90%.
On the same counts, the results for `O=C(CO[C@H]1CC[C@H](Nc2ccc([N+](=O)[O-])c(C(F)(F)F)c2)CC1)N1CCN(C(=O)C2Cc3cc(C(F)(F)F)ccc3O2)CC1` (stereo partly drawn) [Compound 81, 2-[4-(4-nitro-3-trifluoromethyl-phenylamino)-cyclohexyloxy]-1-[4-(5-trifluoromethyl-2,3-dihydro-benzofuran-2-carbonyl)-piperazin-1-yl]-ethanone] are < 1 µg/mL and ≥ 90%.
Regarding `CC(O[C@H]1CC[C@H](Nc2ccc([N+](=O)[O-])c(C(F)(F)F)c2)CC1)C(=O)N1CCN(c2ccc3cc(F)ccc3c2)CC1` (stereo partly drawn) [Compound 252, 1-(4-(6-fluoronaphthalen-2-yl)piperazin-1-yl)-2-(−4-(4-nitro-3-(trifluoromethyl)phenylamino)cyclohexyloxy)propan-1-one], the EC50 in assay [1] (setting [2]) was < 1 µg/mL. Further, the inhibition at 5 µg/mL in the assay with Haemonchus contortus was ≥ 90%.
As for `CC(c1cc2cc(C(F)(F)F)ccc2o1)N1CCN(C(=O)CO[C@H]2CC[C@H](N(C)c3ccc([N+](=O)[O-])c(C(F)(F)F)c3)CC2)CC1` (stereo partly drawn) [Compound 257, 2-[[4-[methyl[4-nitro-3-(trifluoromethyl)phenyl]amino]cyclohexyl]oxy]-1-(4-[1-[5-(trifluoro-methyl)-1-benzofuran-2-yl]ethyl]piperazin-1-yl)ethan-1-one], the EC50 in assay [1] (setting [2]) is < 5 µg/mL. The inhibition at 5 µg/mL in the assay with Haemonchus contortus was ≥ 90%.
With `CC(O[C@H]1CC[C@H](Nc2ccc([N+](=O)[O-])c(C(F)(F)F)c2)CC1)C(=O)N1CCN(c2ccc3cc(F)ccc3n2)CC1` (stereo partly drawn) [Compound 251, 1-[4-(6-fluoroquinolin-2-yl)piperazin-1-yl]-2-[[4-[[4-nitro-3-(trifluoromethyl)phenyl]amino]cyclohexyl]oxy]propan-1-one], the 50% effective concentration (EC50) in assay [1] (setting [2]) is < 1 µg/mL. In addition, the inhibition at 5 µg/mL in the assay with Haemonchus contortus is ≥ 90%.
On the same counts, the results for `O=C(CO[C@H]1CC[C@H](Nc2ccc([N+](=O)[O-])c(C(F)(F)F)c2)CC1)N1CCN(Cc2cc3cc(F)ccc3o2)CC1` [Compound 179, 1-[4-[(5-fluoro-1-benzofuran-2-yl)methyl]piperazin-1-yl]-2-[(4-[[4-nitro-3-(trifluoromethyl)phenyl]amino]cyclohexyl)oxy]ethan-1-one] are < 1 µg/mL and ≥ 90%.
Consider `O=C(NCCO[C@H]1CC[C@H](Nc2ccc([N+](=O)[O-])c(C(F)(F)F)c2)CC1)C(=O)NCc1cc2cc(C(F)(F)F)ccc2o1` [Compound 223, N^1-(2-(4-(4-nitro-3-(trifluoromethyl)phenylamino)cyclohexyloxy)ethyl)-N^2-((5-(trifluoromethyl)benzofuran-2-yl)methyl)oxalamide], for which, in assay [1], the EC50 is < 0.1 µg/mL. Also, in the assay on Haemonchus contortus, the inhibition at 5 µg/mL was ≥ 90%.
In the case of `Cc1cc(N2CCN(C(=O)CO[C@H]3CC[C@H](Nc4ccc([N+](=O)[O-])c(C(F)(F)F)c4)CC3)CC2)nc2ccccc12` [Compound 98, 1-[4-(4-methylquinolin-2-yl)piperazin-1-yl]-2-[(4-[[4-nitro-3-(trifluoromethyl)phenyl]amino]cyclohexyl)oxy]ethan-1-one], the EC50 in assay [1] (setting [2]) was < 5 µg/mL. In the assay on Haemonchus contortus, the inhibition at 5 µg/mL is ≥ 90%.
On the same counts, the results for `CN(c1ccc([N+](=O)[O-])c(C(F)(F)F)c1)[C@H]1CC[C@H](OCC(=O)N2CCN(Cc3oc4ccc(C(F)(F)F)cc4c3Cl)CC2)CC1` [Compound 258, 1-(4-[[3-chloro-5-(trifluoromethyl)-1-benzofuran-2-yl]methyl]piperazin-1-yl)-2-[[4-[methyl[4-nitro-3-(trifluoromethyl)phenyl]amino]cyclohexyl]oxy]ethan-1-one] are < 1 µg/mL and ≥ 90%.
With `CC(O[C@H]1CC[C@H](Nc2ccc([N+](=O)[O-])c(C(F)(F)F)c2)CC1)C(=O)N1CCN(c2ccc3cc(C(F)(F)F)ccc3n2)CC1` (stereo partly drawn) [Compound 249, 2-[[-4-[[4-nitro-3-(trifluoromethyl)phenyl]amino]cyclohexyl]oxy]-1-[4-[6-(trifluoromethyl)quinolin-2-yl]piperazin-1-yl]propan-1-one], the 50% effective concentration (EC50) in assay [1] is < 1 µg/mL. The inhibition at 5 µg/mL with Haemonchus contortus was ≥ 90%.
Consider `N#Cc1ccc(N[C@H]2CC[C@H](OCC(=O)N3CCN(c4ccc5cc(F)ccc5c4)CC3)CC2)cc1C(F)(F)F` [Compound 279, 4-(4-{2-[4-(6-fluoro-naphthalen-2-yl)-piperazin-1-yl]-2-oxo-ethoxy}-cyclohexylamino)-2-trifluoromethyl-benzonitrile], for which the EC50 in assay [1] (setting [2]) was < 5 µg/mL. The inhibition at 5 µg/mL with Haemonchus contortus was ≥ 90%.
